Test results taken from US20240368159A1, “HPK1 DEGRADERS, COMPOSITIONS COMPRISING THE HPK1 DEGRADER, AND METHODS OF USING THE SAME” (BIOFRONT LTD, priority 2021, published 2024).

Biological target: T1, HPK1 protein (Homo sapiens, UniProt Q92918)
T1 construct: purchased Signal Chem M23-11G-10
T1 sequence (Q92918 1-346 limits assumed): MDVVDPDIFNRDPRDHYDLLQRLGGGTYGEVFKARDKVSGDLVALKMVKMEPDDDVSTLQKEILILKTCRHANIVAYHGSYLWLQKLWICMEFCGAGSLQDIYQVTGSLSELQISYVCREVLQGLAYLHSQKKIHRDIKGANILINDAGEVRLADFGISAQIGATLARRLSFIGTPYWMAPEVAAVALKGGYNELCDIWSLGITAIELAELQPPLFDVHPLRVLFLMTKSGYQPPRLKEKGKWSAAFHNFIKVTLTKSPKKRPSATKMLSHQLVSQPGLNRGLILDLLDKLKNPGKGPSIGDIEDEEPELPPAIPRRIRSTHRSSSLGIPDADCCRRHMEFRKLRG
Test: HPK1 enzyme inhibition assay (ADP-Glo)
Type: biochemical
Settings: MBP substrate, ATP, ADP-Glo readout
Description: The compound was dissolved in 100% DMSO at the concentration of 10 mM. The HPK1 protein was purchased from Signal Chem (M23-11G-10). 2.5 μL per well of 2×HPK1 protein was added to assay plate containing the test compound, centrifuged at 1500 rpm for 1 minute, and then incubated at 25° C. for 60 minutes. MBP protein was purchased from Signal Chem (M42-51N) and ATP was purchased from Promega (V9102). The two were added 2.5 μL per well mixture of 2×MBP (0.2 ug/ul) and ATP (20 μM), centrifuged at 1500 rpm for 1 minute, then incubated at 25° C. for 60 minutes. Then added 5 μL of ADP-Glo from Promega (V9102) to the assay plate and depleted the unconsumed ATP for 60 minutes. Then centrifuged at 1500 rpm for 1 minute and incubated at 25° C. for 60 minutes. Finally, 10 μL of the kinase assay reagent from Promega (V9102) was added to the assay plate to convert ADP to ATP, centrifuged at 1500 rpm for 1 minute, incubate at 25° C. for 40 minutes. After 40 minutes incubation, the […] was determined. Based on the results, the IC50 value of the compound was calculated.

SMILES	IC50 [nM]
CCc1c[nH]c2ncc(-c3cccc(N4CCN(C(=O)CCCCCCCOc5cccc6c5CN(C5CCC(=O)N(C)C5=O)C6=O)CC4=O)c3)c(Cl)c12 (centres unmarked) [Example 2, 3-(4-((8-(4-(3-(4-chloro-3-ethyl-1H-pyrrolo[2,3-b]pyridin-5-yl)phenyl)-3-oxopiperazin-1-yl)-8-oxooctyl)oxy)-1-oxoisoindolin-2-yl)-1-methylpiperidine-2,6-dione]	100 to 1000
CCc1c[nH]c2ncc(-c3cccc(N4CCN(C(=O)COc5cccc6c5CN(C5CCC(=O)NC5=O)C6=O)CC4=O)c3)c(Cl)c12 (centres unmarked) [Example 3]	≤ 10
CCc1c[nH]c2ncc(-c3cccc(N4CCN(C(=O)CCCOc5cccc6c5CN(C5CCC(=O)NC5=O)C6=O)CC4=O)c3)c(Cl)c12 (centres unmarked) [Example 4, 3-(4-(4-(4-(3-(4-chloro-3-ethyl-1H-pyrrolo[2,3-b]pyridin-5-yl)phenyl)-3-oxopiperazin-1-yl)-4-oxobutoxy)-1-oxoisoindolin-2-yl)piperidine-2,6-dione]	10 to 100
CCc1c[nH]c2ncc(-c3cccc(N4CCN(C(=O)CCCCCOc5cccc6c5CN(C5CCC(=O)NC5=O)C6=O)CC4=O)c3)c(Cl)c12 (centres unmarked) [Example 5, 3-(4-((6-(4-(3-(4-chloro-3-ethyl-1H-pyrrolo[2,3-b]pyridin-5-yl)phenyl)-3-oxopiperazin-1-yl)-6-oxohexyl)oxy)-1-oxoisoindolin-2-yl)piperidine-2,6-dione]	10 to 100
CCc1c[nH]c2ncc(-c3cccc(N4CCN(C(=O)CCCCCCOc5cccc6c5CN(C5CCC(=O)NC5=O)C6=O)CC4=O)c3)c(Cl)c12 (centres unmarked) [Example 6, 3-(4-((7-(4-(3-(4-chloro-3-ethyl-1H-pyrrolo[2,3-b]pyridin-5-yl)phenyl)-3-oxopiperazin-1-yl)-7-oxoheptyl)oxy)-1-oxoisoindolin-2-yl)piperidine-2,6-dione]	10 to 100
CCc1c[nH]c2ncc(-c3cccc(N4CCN(C(=O)CCCCCCCCCOc5cccc6c5CN(C5CCC(=O)NC5=O)C6=O)CC4=O)c3)c(Cl)c12 (centres unmarked) [Example 7, 3-(4-((10-(4-(3-(4-chloro-3-ethyl-1H-pyrrolo[2,3-b]pyridin-5-yl)phenyl)-3-oxopiperazin-1-yl)-10-oxodecyl)oxy)-1-oxoisoindolin-2-yl)piperidine-2,6-dione]	100 to 1000
CCc1c[nH]c2ncc(-c3cccc(N4CCN(C(=O)CCCCCCCOc5cccc6c5C(=O)N(C5CCC(=O)NC5=O)C6=O)CC4=O)c3)c(Cl)c12 (centres unmarked) [Example 9, 4-((8-(4-(3-(4-chloro-3-ethyl-1H-pyrrolo[2,3-b]pyridin-5-yl)phenyl)-3-oxopiperazin-1-yl)-8-oxooctyl)oxy)-2-(2,6-dioxopiperidin-3-yl)isoindoline-1,3-dione]	10 to 100
CCc1c[nH]c2ncc(-c3cccc(N4CCN(C(=O)CCCCCCCNc5cccc6c5CN(C5CCC(=O)NC5=O)C6=O)CC4=O)c3)c(Cl)c12 (centres unmarked) [Example 10, 3-(4-((8-(4-(3-(4-chloro-3-ethyl-1H-pyrrolo[2,3-b]pyridin-5-yl)phenyl)-3-oxopiperazin-1-yl)-8-oxooctyl)amino)-1-oxoisoindolin-2-yl)piperidine-2,6-dione]	100 to 1000
CCc1c[nH]c2ncc(-c3cccc(N4CCN(C(=O)CCCCCCCN(C)c5cccc6c5CN(C5CCC(=O)NC5=O)C6=O)CC4=O)c3)c(Cl)c12 (centres unmarked) [Example 11, 3-(4-((8-(4-(3-(4-chloro-3-ethyl-1H-pyrrolo[2,3-b]pyridin-5-yl)phenyl)-3-oxopiperazin-1-yl)-8-oxooctyl)(methyl)amino)-1-oxoisoindolin-2-yl)piperidine-2,6-dione]	100 to 1000
CCc1c[nH]c2ncc(-c3cccc(N4CCN(C(=O)CCOCCOCc5cn(-c6cccc7c6CN(C6CCC(=O)NC6=O)C7=O)nn5)CC4=O)c3)c(Cl)c12 (centres unmarked) [Example 13, 3-(4-(4-((2-(3-(4-(3-(4-chloro-3-ethyl-1H-pyrrolo[2,3-b]pyridin-5-yl)phenyl)-3-oxopiperazin-1-yl)-3-oxopropoxy)ethoxy)methyl)-1H-1,2,3-triazol-1-yl)-1-oxoisoindolin-2-yl)piperidine-2,6-dione]	10 to 100
CCc1c[nH]c2ncc(-c3cccc(N4CCN(C(=O)CCCCCN(C)c5cccc6c5CN(C5CCC(=O)NC5=O)C6=O)CC4=O)c3)c(Cl)c12 (centres unmarked) [Example 14, 3-(4-((6-(4-(3-(4-chloro-3-ethyl-1H-pyrrolo[2,3-b]pyridin-5-yl)phenyl)-3-oxopiperazin-1-yl)-6-oxohexyl)(methyl)amino)-1-oxoisoindolin-2-yl)piperidine-2,6-dione]	10 to 100
CCc1c[nH]c2ncc(-c3cccc(N4CCN(C(=O)CCCN(C)c5cccc6c5CN(C5CCC(=O)NC5=O)C6=O)CC4=O)c3)c(Cl)c12 (centres unmarked) [Example 15, 3-(4-((4-(4-(3-(4-chloro-3-ethyl-1H-pyrrolo[2,3-b]pyridin-5-yl)phenyl)-3-oxopiperazin-1-yl)-4-oxobutyl)(methyl)amino)-1-oxoisoindolin-2-yl)piperidine-2,6-dione]	10 to 100
CCc1c[nH]c2ncc(-c3cccc(N4CCN(C(=O)COC5CCN(c6cccc7c6C(=O)N(C6CCC(=O)NC6=O)C7=O)CC5)CC4=O)c3)c(Cl)c12 (centres unmarked) [Example 17, 4-(4-(2-(4-(3-(4-chloro-3-ethyl-1H-pyrrolo[2,3-b]pyridin-5-yl)phenyl)-3-oxopiperazin-1-yl)-2-oxoethoxy)piperidin-1-yl)-2-(2,6-dioxopiperidin-3-yl)isoindoline-1,3-dione]	100 to 1000
CCc1c[nH]c2ncc(-c3cccc(N4CCN(C(=O)COC5CN(c6cccc7c6C(=O)N(C6CCC(=O)NC6=O)C7=O)C5)CC4=O)c3)c(Cl)c12 (centres unmarked) [Example 18, 4-(3-(2-(4-(3-(4-chloro-3-ethyl-1H-pyrrolo[2,3-b]pyridin-5-yl)phenyl)-3-oxopiperazin-1-yl)-2-oxoethoxy)azetidin-1-yl)-2-(2,6-dioxopiperidin-3-yl)isoindoline-1,3-dione]	10 to 100
CCc1c[nH]c2ncc(-c3cccc(N4CCN(C(=O)CCCCCNc5ccc6c(c5)C(=O)N(C5CCC(=O)NC5=O)C6=O)CC4=O)c3)c(Cl)c12 (centres unmarked) [Example 19, 5-((6-(4-(3-(4-chloro-3-ethyl-1H-pyrrolo[2,3-b]pyridin-5-yl)phenyl)-3-oxopiperazin-1-yl)-6-oxohexyl)amino)-2-(2,6-dioxopiperidin-3-yl)isoindoline-1,3-dione]	10 to 100
CCc1c[nH]c2ncc(-c3cccc(N4CCN(C(=O)CCN5CCN(c6cccc7c6C(=O)N(C6CCC(=O)NC6=O)C7=O)CC5)CC4=O)c3)c(Cl)c12 (centres unmarked) [Example 20, 4-(4-(3-(4-(3-(4-chloro-3-ethyl-1H-pyrrolo[2,3-b]pyridin-5-yl)phenyl)-3-oxopiperazin-1-yl)-3-oxopropyl)piperazin-1-yl)-2-(2,6-dioxopiperidin-3-yl)isoindoline-1,3-dione]	10 to 100
CCc1c[nH]c2ncc(-c3cccc(N4CCN(CC(=O)N5CCN(c6ccc7c(c6)C(=O)N(C6CCC(=O)NC6=O)C7=O)CC5)CC4=O)c3)c(Cl)c12 (centres unmarked) [Example 34, 5-(4-(2-(4-(3-(4-chloro-3-ethyl-1H-pyrrolo[2,3-b]pyridin-5-yl)phenyl)-3-oxopiperazin-1-yl)acetyl)piperazin-1-yl)-2-(2,6-dioxopiperidin-3-yl)isoindoline-1,3-dione]	10 to 100
CCc1c[nH]c2ncc(-c3cccc(N4CCN(CCNC(=O)C5CCN(c6ccc7c(c6)C(=O)N(C6CCC(=O)NC6=O)C7=O)CC5)CC4=O)c3)c(Cl)c12 (centres unmarked) [Example 37]	> 1000
CCc1c[nH]c2ncc(-c3cccc(N4CCN(CCNc5ccc6c(c5)C(=O)N(C5CCC(=O)NC5=O)C6=O)CC4=O)c3)c(Cl)c12 (centres unmarked) [Example 60, 5-((2-(4-(3-(4-chloro-3-ethyl-1H-pyrrolo[2,3-b]pyridin-5-yl)phenyl)-3-oxopiperazin-1-yl)ethyl)amino)-2-(2,6-dioxopiperidin-3-yl)isoindoline-1,3-dione]	10 to 100
CCc1c[nH]c2ncc(-c3cccc(N4CCN(C(=O)CCCCCCCOc5ccc6c(c5)C(=O)N(C5CCC(=O)NC5=O)C6)CC4=O)c3)c(Cl)c12 (centres unmarked) [Example 65, 3-(6-((8-(4-(3-(4-chloro-3-ethyl-1H-pyrrolo[2,3-b]pyridin-5-yl)phenyl)-3-oxopiperazin-1-yl)-8-oxooctyl)oxy)-1-oxoisoindolin-2-yl)piperidine-2,6-dione]	10 to 100
CCc1c[nH]c2ncc(-c3cccc(N4CCN(C(=O)COc5ccc6c(c5)C(=O)N(C5CCC(=O)NC5=O)C6)CC4=O)c3)c(Cl)c12 (centres unmarked) [Example 66]	≤ 10
CCc1c[nH]c2ncc(-c3cccc(N4CCN(C(=O)CCCOc5ccc6c(c5)C(=O)N(C5CCC(=O)NC5=O)C6)CC4=O)c3)c(Cl)c12 (centres unmarked) [Example 67]	10 to 100
CCc1c[nH]c2ncc(-c3cccc(N4CCN(C(=O)CCCCCOc5ccc6c(c5)C(=O)N(C5CCC(=O)NC5=O)C6)CC4=O)c3)c(Cl)c12 (centres unmarked) [Example 68, 3-(6-((6-(4-(3-(4-chloro-3-ethyl-1H-pyrrolo[2,3-b]pyridin-5-yl)phenyl)-3-oxopiperazin-1-yl)-6-oxohexyl)oxy)-1-oxoisoindolin-2-yl)piperidine-2,6-dione]	10 to 100
